Converted amounts (≈) assume the structure as drawn. Marks after values point to notes of the source that are not given here.
Tests used:
APEC O2 = type: cell-based, avian pathogenic Escherichia coli (APEC); settings: APEC O2, M63 media; MIC/MBC
APEC O109 = type: cell-based, avian pathogenic Escherichia coli (APEC); settings: APEC O109, M63 media; MIC/MBC
APEC O78 [1] = test: Confocal microscopy bacterial cytological profiling; type: cell-based, avian pathogenic Escherichia coli (APEC); settings: 2X MBC
Procedure: Confocal and scanning electron microscopy. Confocal microscopy was used for bacterial cytological profiling (BCP) to identify the cellular pathways targeted by SMs as described previously. […] After incubation, treated cultures were centrifuged, washed, and resuspended in 100 μL PBS. […] Cultures were then centrifuged, washed, and resuspended in PBS to 1⁄10th volume of the original cultures.

APEC O35 = type: cell-based, avian pathogenic Escherichia coli (APEC); settings: APEC O35, M63 media; MIC/MBC
[2] = system: intracellular APEC O78 in HD11 cells; test: Intracellular survival assay (cidal SMs); settings: O78, HD11, 6 h treatment; superscript = multiple of MIC
APEC O78 [3] = type: cell-based, avian pathogenic Escherichia coli (APEC); settings: APEC O78, M63 media; for MIC: MIC/MBC; for MBC: cell prints MIC/MBC
APEC O15 = type: cell-based, avian pathogenic Escherichia coli (APEC); settings: APEC O15, M63 media; MIC/MBC
APEC O115 = type: cell-based, avian pathogenic Escherichia coli (APEC); settings: APEC O115, M63 media; MIC/MBC
APEC O1-63 = type: cell-based, avian pathogenic Escherichia coli (APEC); settings: APEC O1-63, M63 media; MIC/MBC
[4] = system: intracellular APEC O78 in Caco-2 cells; test: Intracellular survival assay (cidal SMs); settings: O78, Caco-2, 6 h treatment; superscript = multiple of MIC
[5] = system: intracellular APEC O1 in THP-1 cells; test: Intracellular survival assay (cidal SMs); settings: O1, THP-1, 6 h treatment; superscript = multiple of MIC
[6] = system: biofilm embedded APEC O78; test: MBEC High-throughput assay; type: cell-based, avian pathogenic Escherichia coli (APEC); settings: biofilm embedded APEC O78; superscript = multiple of MIC (footnote)
Procedure: Effect against biofilm embedded APEC. The effect of cidal SMs against biofilm embedded APEC was determined using MBEC High-throughput (HTP) assay (Innovotech Inc., AB, Canada). Briefly, 150 µL of 0.05 OD600 adjusted APEC O78 culture was aliquoted into each well of the MBEC device containing polystyrene pegs and incubated at 37° C. for 36 h in LB media under stationary condition. […] The plate was incubated in the dark for 18 h at 37° C. with rotation at 110 rpm. The DMSO (1%) and M63 media were used as positive and negative controls, respectively. Following incubation, MIC of SMs in challenged plate was recorded. The SMs exposed pegs were then transferred to a new 96-well plate containing PBS and sonicated for 30 mins (Aquasonic ultrasonic cleaner, VWR) to disrupt the biofilm. […] Biofilm embedded APEC bacteria were enumerated and minimum biofilm eradication concentration (MBEC) of […] were determined. Two independent experiments were conducted.

[7] = system: intracellular APEC O1 in Caco-2 cells; test: Intracellular survival assay (cidal SMs); settings: O1, Caco-2, 6 h treatment; superscript = multiple of MIC
[8] = system: intracellular APEC O78 in THP-1 cells; test: Intracellular survival assay (cidal SMs); settings: O78, THP-1, 6 h treatment; superscript = multiple of MIC
[9] = system: intracellular APEC O2 in HD11 cells; test: Intracellular survival assay (cidal SMs); settings: O2, HD11, 6 h treatment; superscript = multiple of MIC
[10] = system: intracellular APEC O1 in HD11 cells; test: Intracellular survival assay (cidal SMs); settings: O1, HD11, 6 h treatment; superscript = multiple of MIC
APEC O78-53 = type: cell-based, avian pathogenic Escherichia coli (APEC); settings: APEC O78-53, M63 media; MIC/MBC
APEC O1 = type: cell-based, avian pathogenic Escherichia coli (APEC); settings: APEC O1, M63 media; MIC/MBC
APEC O78 [11] = test: Loss of 260/280 nm absorbing materials assay; type: cell-based, avian pathogenic Escherichia coli (APEC); settings: 2X MBC, 1 h, *P<0.05 vs DMSO; for Absorbance 260: 260 nm absorbing material in supernatant; for Absorbance 280: 280 nm absorbing material in supernatant
Rif^r APEC O78 = test: In vivo efficacy of growth inhibitors in APEC infected broiler chickens; settings: for reduction of average APEC load in internal organs: average of liver, lung and kidney; for reduction of average APEC load in internal organs / reduction of APEC load, Heart / reduction of APEC load, Kidney / reduction of APEC load, Liver / reduction of APEC load, Lung: vs untreated control; for reduction of APEC induced mortality: oral gavage twice a day, 5 days, untreated mortality (58.34%) normalized to 100%; for reduction of APEC lesions severity (%), Air-sacs (airsacculitis) / reduction of APEC lesions severity (%), Heart (pericarditis) / reduction of APEC lesions severity (%), Liver (perihepatitis) / reduction of APEC lesions severity (%), Lung (lung congestion): untreated control = 100%; for Body weight gain (BWG): weight of live chickens before necropsy minus weight before treatment
APEC O2-211 = type: cell-based, avian pathogenic Escherichia coli (APEC); settings: APEC O2-211, M63 media; MIC/MBC
[12] = system: intracellular APEC O2 in Caco-2 cells; test: Intracellular survival assay (cidal SMs); settings: O2, Caco-2, 6 h treatment; superscript = multiple of MIC
[13] = system: intracellular APEC O2 in THP-1 cells; test: Intracellular survival assay (cidal SMs); settings: O2, THP-1, 6 h treatment; superscript = multiple of MIC
[14] = system: intracellular APEC O78, O2, and O1 in infected Caco-2, HD11, and THP1 cells; test: Intracellular survival assay (cidal SMs), summary over serotypes and cells; settings: overall ranking
APEC O8 = type: cell-based, avian pathogenic Escherichia coli (APEC); settings: APEC O8, M63 media; MIC/MBC
APEC O18 = type: cell-based, avian pathogenic Escherichia coli (APEC); settings: APEC O18, M63 media; MIC/MBC

COc1ccc(CNCc2cccc(C(F)(F)F)c2)cc1OCC(O)CN1CCCC1 (stereo not shown) [SM7]
MBC (APEC O2): 50 µM (≈ 21.9 µg/mL)
MIC (APEC O2): 25 µM (≈ 11 µg/mL)
MBC (APEC O109): 100 µM (≈ 43.8 µg/mL)
MIC (APEC O109): 100 µM (≈ 43.8 µg/mL)
cytological profile (confocal, FM4-64 / SYTO-9) (APEC O78 [1]): membrane pore formers
MBC (APEC O35): 50 µM (≈ 21.9 µg/mL)
MIC (APEC O35): 25 µM (≈ 11 µg/mL)
SMs intracellular APEC clearance concentration [2]: 50^b µM
MIC (APEC O78 [3]): 25 µM (≈ 11 µg/mL)
MBC (APEC O78 [3]): 50 µM (≈ 21.9 µg/mL)
MBC (APEC O15): 50 µM (≈ 21.9 µg/mL)
MIC (APEC O15): 50 µM (≈ 21.9 µg/mL)
MBC (APEC O115): 100 µM (≈ 43.8 µg/mL)
MIC (APEC O115): 100 µM (≈ 43.8 µg/mL)
MBC (APEC O1-63): 100 µM (≈ 43.8 µg/mL)
MIC (APEC O1-63): 50 µM (≈ 21.9 µg/mL)
SMs intracellular APEC clearance concentration [4]: 100^c µM
SMs intracellular APEC clearance concentration [5]: >100 µM
MBEC [6]: 50^b µM
SMs intracellular APEC clearance concentration [7]: 100^c µM
SMs intracellular APEC clearance concentration [8]: 50^b µM
SMs intracellular APEC clearance concentration [9]: 100^c µM
SMs intracellular APEC clearance concentration [10]: 100^c µM
MBC (APEC O78-53): 50 µM (≈ 21.9 µg/mL)
MIC (APEC O78-53): 50 µM (≈ 21.9 µg/mL)
MBC (APEC O1): 100 µM (≈ 43.8 µg/mL)
MIC (APEC O1): 50 µM (≈ 21.9 µg/mL)
Absorbance 260 (APEC O78 [11]): 3.91*
Absorbance 280 (APEC O78 [11]): 2.70*
reduction of average APEC load in internal organs (Rif^r APEC O78; heart): 2.6 logs
cumulative lesions score (Rif^r APEC O78; liver, heart, lung and air-sacs, untreated 6.2): 2.4
reduction of APEC induced mortality (Rif^r APEC O78): 71.42%
reduction of APEC lesions severity (%), Air-sacs (airsacculitis) (Rif^r APEC O78): 52.9%
reduction of APEC lesions severity (%), Heart (pericarditis) (Rif^r APEC O78): 60%
reduction of APEC lesions severity (%), Liver (perihepatitis) (Rif^r APEC O78): 60%
reduction of APEC lesions severity (%), Lung (lung congestion) (Rif^r APEC O78): 83.3%
effect on BWG of chickens (Rif^r APEC O78; vs non-treated and non-infected chickens): indistinguishable BWG
reduction of APEC load, Heart (Rif^r APEC O78): 2.3 log CFU/g of tissues
reduction of APEC load, Kidney (Rif^r APEC O78): 3.2 log CFU/g of tissues
reduction of APEC load, Liver (Rif^r APEC O78): 2.5 log CFU/g of tissues
reduction of APEC load, Lung (Rif^r APEC O78): 2.4 log CFU/g of tissues
Body weight gain (BWG) (Rif^r APEC O78): 261.30±20.43
MBC (APEC O2-211): 50 µM (≈ 21.9 µg/mL)
MIC (APEC O2-211): 50 µM (≈ 21.9 µg/mL)
SMs intracellular APEC clearance concentration [12]: 100^c µM
SMs intracellular APEC clearance concentration [13]: 25^a µM
effectiveness in clearing intracellular APEC serotypes in all tested cells [14]: most effective
MBC (APEC O8): 200 µM (≈ 87.7 µg/mL)
MIC (APEC O8): 100 µM (≈ 43.8 µg/mL)
MBC (APEC O18): 100 µM (≈ 43.8 µg/mL)
MIC (APEC O18): 50 µM (≈ 21.9 µg/mL)

CCN1C(=Cc2ccc3ccccc3[n+]2CC)C=Cc2ccccc21.[Cl-] [SM9]
MBC (APEC O2): 50 µM
MIC (APEC O2): 25 µM
MBC (APEC O109): 50 µM
MIC (APEC O109): 25 µM
cytological profile (confocal, FM4-64 / SYTO-9) (APEC O78 [1]): PG synthesis inhibitors
MBC (APEC O35): 50 µM
MIC (APEC O35): 25 µM
SMs intracellular APEC clearance concentration [2]: 100^c µM
MIC (APEC O78 [3]): 25 µM
MBC (APEC O78 [3]): 50 µM
MBC (APEC O15): 100 µM
MIC (APEC O15): 25 µM
MBC (APEC O115): 50 µM
MIC (APEC O115): 25 µM
MBC (APEC O1-63): 100 µM
MIC (APEC O1-63): 50 µM
SMs intracellular APEC clearance concentration [4]: 50^b µM
SMs intracellular APEC clearance concentration [5]: 50^b µM
MBEC [6]: 50^b µM
SMs intracellular APEC clearance concentration [7]: 100^c µM
SMs intracellular APEC clearance concentration [8]: 50^b µM
SMs intracellular APEC clearance concentration [9]: 100^c µM
SMs intracellular APEC clearance concentration [10]: 100^c µM
MBC (APEC O78-53): 25 µM
MIC (APEC O78-53): 25 µM
MBC (APEC O1): 50 µM
MIC (APEC O1): 25 µM
Absorbance 260 (APEC O78 [11]): 3.99*
Absorbance 280 (APEC O78 [11]): 2.78*
reduction of average APEC load in internal organs (Rif^r APEC O78; heart): either exacerbated or did not reduce
reduction of APEC induced mortality (Rif^r APEC O78): 42.86%
reduction of APEC lesions severity (%), Air-sacs (airsacculitis) (Rif^r APEC O78): -88.2%
reduction of APEC lesions severity (%), Heart (pericarditis) (Rif^r APEC O78): -60%
reduction of APEC lesions severity (%), Liver (perihepatitis) (Rif^r APEC O78): -50%
reduction of APEC lesions severity (%), Lung (lung congestion) (Rif^r APEC O78): -16.7%
reduction of APEC load, Heart (Rif^r APEC O78): -0.5 log CFU/g of tissues
reduction of APEC load, Kidney (Rif^r APEC O78): -0.2 log CFU/g of tissues
reduction of APEC load, Liver (Rif^r APEC O78): -0.1 log CFU/g of tissues
reduction of APEC load, Lung (Rif^r APEC O78): -0.9 log CFU/g of tissues
Body weight gain (BWG) (Rif^r APEC O78): 214.93±31.88
MBC (APEC O2-211): 25 µM
MIC (APEC O2-211): 25 µM
SMs intracellular APEC clearance concentration [12]: 100^c µM
SMs intracellular APEC clearance concentration [13]: 50^b µM
effectiveness in clearing intracellular APEC serotypes in all tested cells [14]: most effective
MBC (APEC O8): 50 µM
MIC (APEC O8): 25 µM
MBC (APEC O18): 100 µM
MIC (APEC O18): 25 µM

Source: US20230355597A1, “COMPOUNDS, COMPOSITIONS, AND METHODS FOR THE TREATMENT AND PREVENTION OF AVIAN PATHOGENIC E. COLI (APEC)” (OHIO STATE INNOVATION FOUNDATION, priority 2018, published 2023)
